Records with an inconclusive call do not appear.
System: BDF1 mice, s.c. Lewis lung carcinoma, T/C %
Assay: NCI In Vivo Anticancer Drug Screen. Data for tumor model Lewis Lung Carcinoma (subcutaneous) in B6D2F1 (BDF1) mice
Summary of the method: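 Readout: survival or tumor size, expressed as treated (T) over vehicle control (C). Transplantable tumor implanted in mice; compound given to the treated group.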

[1] = endpoint: mean tumor weight, dose: 125.0 mg/kg/injection, schedule: Q01DX011 (ip), vehicle: carboxymethylcellulose (CMC), higher = larger tumour
[2] = endpoint: median survival time, dose: 0.5 mg/kg/injection, schedule: Q01DX009 (ip), vehicle: Klucel (hydroxypropylcellulose) (HPC), higher = longer survival
[3] = endpoint: median survival time, dose: 1.0 mg/kg/injection, schedule: Q01DX009 (ip), vehicle: Klucel (hydroxypropylcellulose) (HPC), higher = longer survival
[4] = endpoint: median survival time, dose: 6.25 mg/kg/injection, schedule: Q01DX009 (ip), vehicle: saline, higher = longer survival

Nc1ccccc1N
T/C (endpoint: median survival time, dose: 25.0 mg/kg/injection, schedule: Q02DX009 (ip), vehicle: saline with Tween-80, higher = longer survival): 112 % of control | T/C (endpoint: median survival time, dose: 50.0 mg/kg/injection, schedule: Q02DX009 (ip), vehicle: saline with Tween-80, higher = longer survival): 118 % of control | T/C (endpoint: median survival time, dose: 100.0 mg/kg/injection, schedule: Q02DX009 (ip), vehicle: saline with Tween-80, higher = longer survival): 97 % of control | T/C (endpoint: median survival time, dose: 200.0 mg/kg/injection, schedule: Q02DX009 (ip), vehicle: saline with Tween-80, higher = longer survival): 111 % of control

C[C@H](N)C(=O)N[C@@H]1[C@H]2C(=C(O)C[C@@H](O)[C@@H]2O)C(=O)O[C@@H]1C
T/C (endpoint: mean tumor weight, dose: 300.0 mg/kg/injection, schedule: Q01DX011 (ip), vehicle: saline, higher = larger tumour): 83 % of control | T/C (endpoint: mean tumor weight, dose: 600.0 mg/kg/injection, schedule: Q01DX011 (ip), vehicle: saline, higher = larger tumour): 60 % of control | T/C (endpoint: mean tumor weight, dose: 1200.0 mg/kg/injection, schedule: Q01DX011 (ip), vehicle: saline, higher = larger tumour): 89 % of control

O=C1C2C3CCC(O3)C2C(=O)N1c1nccs1 (centres undefined)
T/C (endpoint: mean tumor weight, dose: 62.5 mg/kg/injection, schedule: Q01DX011 (ip), vehicle: carboxymethylcellulose (CMC), higher = larger tumour): 75 % of control | T/C [1]: 71 % of control

Nc1nc(=S)c2[nH]cnc2[nH]1
T/C [2]: 108 % of control | T/C [3]: 117 % of control | T/C (endpoint: median tumor weight (est.), dose: 0.67 mg/kg/injection, schedule: Q01DX011 (ip), vehicle: alkali diluted with saline, higher = larger tumour): 80 % of control | T/C (endpoint: median tumor weight (est.), dose: 1.0 mg/kg/injection, schedule: Q01DX011 (ip), vehicle: alkali diluted with saline, higher = larger tumour): 24 % of control

O=[N+]([O-])c1cc([N+](=O)[O-])c(Br)cc1Cl
T/C (endpoint: median survival time, dose: 2.5 mg/kg/injection, schedule: Q01DX009 (ip), vehicle: Klucel (hydroxypropylcellulose) (HPC), higher = longer survival): 104 % of control | T/C (endpoint: median survival time, dose: 5.0 mg/kg/injection, schedule: Q01DX009 (ip), vehicle: Klucel (hydroxypropylcellulose) (HPC), higher = longer survival): 97 % of control | T/C (endpoint: median survival time, dose: 10.0 mg/kg/injection, schedule: Q01DX009 (ip), vehicle: Klucel (hydroxypropylcellulose) (HPC), higher = longer survival): 105 % of control

CN(Cc1cnc2nc(N)nc(N)c2n1)c1c(Cl)cc(C(=O)NC(CCC(=O)O)C(=O)O)cc1Cl (centres undefined)
T/C (endpoint: median survival time, dose: 90.0 mg/kg/injection, schedule: Q01DX009 (ip), vehicle: sodium bicarbonate, higher = longer survival): 110 % of control | T/C (endpoint: median survival time, dose: 560.0 mg/kg/injection, schedule: Q04DX003 (ip), vehicle: sodium bicarbonate, higher = longer survival): 112 % of control | T/C (endpoint: median survival time, dose: 626.0 mg/kg/injection, schedule: Q01DX001 (ip), vehicle: sodium bicarbonate, higher = longer survival): 116 % of control | T/C (endpoint: median survival time, dose: 840.0 mg/kg/injection, schedule: Q04DX003 (ip), vehicle: sodium bicarbonate, higher = longer survival): 108 % of control | T/C (endpoint: median survival time, dose: 933.0 mg/kg/injection, schedule: Q01DX001 (ip), vehicle: sodium bicarbonate, higher = longer survival): 92 % of control | T/C (endpoint: median survival time, dose: 1400.0 mg/kg/injection, schedule: Q01DX001 (ip), vehicle: sodium bicarbonate, higher = longer survival): 100 % of control

Cc1c(N)nc(C(CC(N)=O)NCC(N)C(N)=O)nc1C(=O)NC(C(=O)NC(C)C(O)C(C)C(=O)NC(C(=O)NCCc1nc(-c2nc(C(=O)NCCC[S+](C)C)cs2)cs1)C(C)O)C(OC1OC(CO)C(O)C(O)C1OC1OC(CO)C(O)C(OC(N)=O)C1O)c1cnc[nH]1 (centres undefined)
T/C [2]: 116 % of control | T/C [3]: 121 % of control | T/C (endpoint: median survival time, dose: 2.0 mg/kg/injection, schedule: Q01DX009 (ip), vehicle: Klucel (hydroxypropylcellulose) (HPC), higher = longer survival): 121 % of control | T/C (endpoint: median survival time, dose: 4.0 mg/kg/injection, schedule: Q01DX009 (ip), vehicle: Klucel (hydroxypropylcellulose) (HPC), higher = longer survival): 121 % of control

N=C(N)c1ccc(OCCCOc2ccc(C(=N)N)cc2Br)c(Br)c1
T/C [4]: 122 % of control

CCCC1CCC(=C2C(=O)CCC2=O)O1 (centres undefined)
T/C (endpoint: median survival time, dose: 3.13 mg/kg/injection, schedule: Q01DX009 (ip), vehicle: saline, higher = longer survival): 102 % of control | T/C [4]: 111 % of control | T/C (endpoint: median survival time, dose: 12.5 mg/kg/injection, schedule: Q01DX009 (ip), vehicle: saline, higher = longer survival): 105 % of control | T/C (endpoint: median survival time, dose: 25.0 mg/kg/injection, schedule: Q01DX009 (ip), vehicle: saline, higher = longer survival): 101 % of control

OC1c2cc(Cl)ccc2-c2c(Cl)cc(Cl)cc21 (centres undefined)
T/C (endpoint: mean tumor weight, dose: 63.0 mg/kg/injection, schedule: Q01DX011 (ip), vehicle: carboxymethylcellulose (CMC), higher = larger tumour): 64 % of control | T/C [1]: 58 % of control | T/C (endpoint: mean tumor weight, dose: 190.0 mg/kg/injection, schedule: Q01DX011 (ip), vehicle: carboxymethylcellulose (CMC), higher = larger tumour): 61 % of control
